Assay results: patent publication US11726101B2, “Adrenomedullin assays and methods for determining mature adrenomedullin” (SPHINGOTEC GMBH, priority 2011, dated 2023)

How the values were obtained:
[1] = using other assay methods (Hinson 2000); cited from earlier work
[2] = Stability of human Adrenomedullin in human Citrate plasma at 24° C., quantified by hADM immunoassay (MR-ADM/CT-ADM); type: in vitro ADME; conditions: for Average ADM recovery (N = 5) / Loss of immune reactivity %/h: human Citrate plasma; for Average ADM recovery (N = 5): 10 ng ADM/ml; for Average loss of immune reactivity: average over time points, human plasma, MR-ADM/CT-ADM sandwich assay
Experimental: At selected time points, aliquots were frozen at −20° C.

What does the source list for CC[C@H](C)[C@H](NC(=O)[C@H](CCC(N)=O)NC(=O)[C@H](Cc1c[nH]cn1)NC(=O)[C@H](C)NC(=O)[C@H](CC(C)C)NC(=O)[C@H](CCCCN)NC(=O)[C@H](CCC(N)=O)NC(=O)[C@@H](NC(=O)[C@@H](NC(=O)[C@@H]1CSSC[C@H](NC(=O)CNC(=O)[C@H](Cc2ccccc2)NC(=O)[C@H](CO)NC(=O)[C@H](CCCNC(=N)N)NC(=O)[C@H](CC(C)C)NC(=O)CNC(=O)[C@H](CCC(N)=O)NC(=O)[C@H](Cc2ccccc2)NC(=O)[C@H](CC(N)=O)NC(=O)[C@H](CC(N)=O)NC(=O)[C@H](CCSC)NC(=O)[C@H](CO)NC(=O)[C@H](CCC(N)=O)NC(=O)[C@H](CCCNC(=N)N)NC(=O)[C@@H](N)Cc2ccc(O)cc2)C(=O)N[C@@H](CCCNC(=N)N)C(=O)N[C@@H](Cc2ccccc2)C(=O)NCC(=O)N[C@@H]([C@@H](C)O)C(=O)N1)[C@@H](C)O)C(C)C)C(=O)N[C@@H](Cc1ccc(O)cc1)C(=O)N[C@@H](CCC(N)=O)C(=O)N[C@@H](Cc1ccccc1)C(=O)N[C@H](C(=O)N[C@@H](CC(=O)O)C(=O)N[C@@H](CCCCN)C(=O)N[C@@H](CC(=O)O)C(=O)N[C@@H](CCCCN)C(=O)N[C@@H](CC(=O)O)C(=O)N[C@@H](CC(N)=O)C(=O)N[C@H](C(=O)N[C@@H](C)C(=O)N1CCC[C@H]1C(=O)N[C@@H](CCCNC(=N)N)C(=O)N[C@@H](CO)C(=O)N[C@@H](CCCCN)C(=O)N[C@H](C(=O)N[C@@H](CO)C(=O)N1CCC[C@H]1C(=O)N[C@@H](CCC(N)=O)C(=O)NCC(=O)N[C@@H](Cc1ccc(O)cc1)C(N)=O)[C@@H](C)CC)C(C)C)[C@@H](C)O [hADM]?
plasma half life [1]: 22 min; Average ADM recovery (N = 5) ([2]; 0 h): 100; Loss of immune reactivity %/h ([2]; 2 h): 0.4 %/h; Average ADM recovery (N = 5) ([2]; 2 h): 99.2; Loss of immune reactivity %/h ([2]; 4 h): 0.8 %/h; Average ADM recovery (N = 5) ([2]; 4 h): 96.4; Loss of immune reactivity %/h ([2]; 8 h): 1.5 %/h; Average ADM recovery (N = 5) ([2]; 8 h): 88.2; Average loss of immune reactivity [2]: Average: 0.9%/h; Average loss of immune reactivity ([2]; listed as ADM): 0.9 %/h
